Data on 14 molecules can be found in patent US10973832B2, “Muscarinic M1 receptor agonists” (Heptares Therapeutics Limited, priority 2011, dated 2021).

Holding throughout (format): cell-based
The target in test [1] is T1, human muscarinic M3 receptor (Homo sapiens, UniProt P20309).
T1 construct: expressed in transfected cells
The test can be described thus: Phospho-ERK1/2 assay, muscarinic M3. The settings on record: for EC50: phospho-ERK1/2 Alphascreen, read-out: pEC50 M3 (converted); for Emax: CHO, read-out: % Emax cf. ACh (M3). How it is done:
(§1) Functional assays were performed using the Alphascreen Surefire phospho-ERK1/2 assay (Crouch & Osmond, Comb. Chem. High Throughput Screen, 2008). ERK1/2 phosphorylation is a downstream consequence of both Gq/11 and Gi/o protein coupled receptor activation, making it highly suitable for the assessment of M1, M3 (Gq/11 coupled) and M2, M4 receptors (Gi/o coupled), rather than using different assay formats for different receptor subtypes. CHO cells stably expressing the human muscarinic M1, M2, M3 or M4 receptor were plated (25K/well) onto 96-well tissue culture plates in MEM-alpha+10% dialysed FBS. Once adhered, cells were serum-starved overnight. Agonist stimulation was performed by the addition of 5 μL agonist to the cells for 5 min (37° C.). Media was removed and 50 μL of lysis buffer added. After 15 min, a 4 μL sample was transferred to 384-well plate and 7 μL of detection mixture added. Plates were incubated for 2 h with gentle agitation in the dark and then read on a PHERAstar plate reader.
(§2) pEC50 and Emax figures were calculated from the resulting data for each receptor subtype.
In general terms: Bead proximity is the source of the signal in Alpha formats.

Test [2] addresses T2, human muscarinic M4 receptor (Homo sapiens, UniProt P08173).
T2 construct: expressed in transfected cells
T2 sequence (P08173 1-479): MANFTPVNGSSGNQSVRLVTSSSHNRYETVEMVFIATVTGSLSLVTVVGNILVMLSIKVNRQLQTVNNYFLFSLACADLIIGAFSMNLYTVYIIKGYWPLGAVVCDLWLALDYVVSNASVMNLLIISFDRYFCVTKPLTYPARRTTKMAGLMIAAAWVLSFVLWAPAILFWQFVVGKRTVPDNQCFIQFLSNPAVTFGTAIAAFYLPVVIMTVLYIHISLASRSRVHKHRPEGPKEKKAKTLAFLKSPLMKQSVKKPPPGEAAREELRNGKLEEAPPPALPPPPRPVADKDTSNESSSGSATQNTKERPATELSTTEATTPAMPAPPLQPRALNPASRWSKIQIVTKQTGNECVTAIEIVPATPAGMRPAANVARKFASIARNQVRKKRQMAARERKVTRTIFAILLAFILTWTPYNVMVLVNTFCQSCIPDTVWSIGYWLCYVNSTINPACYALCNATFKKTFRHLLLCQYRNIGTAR
The test can be described thus: Phospho-ERK1/2 assay, muscarinic M4. The settings on record: for EC50: phospho-ERK1/2 Alphascreen, read-out: pEC50 M4 (converted); for Emax: CHO, read-out: % Emax cf. ACh (M4). Here is the method: as §1, §2

Test [3] has as its target T3, human muscarinic M1 receptor (Homo sapiens, UniProt P11229).
T3 sequence (P11229 1-460): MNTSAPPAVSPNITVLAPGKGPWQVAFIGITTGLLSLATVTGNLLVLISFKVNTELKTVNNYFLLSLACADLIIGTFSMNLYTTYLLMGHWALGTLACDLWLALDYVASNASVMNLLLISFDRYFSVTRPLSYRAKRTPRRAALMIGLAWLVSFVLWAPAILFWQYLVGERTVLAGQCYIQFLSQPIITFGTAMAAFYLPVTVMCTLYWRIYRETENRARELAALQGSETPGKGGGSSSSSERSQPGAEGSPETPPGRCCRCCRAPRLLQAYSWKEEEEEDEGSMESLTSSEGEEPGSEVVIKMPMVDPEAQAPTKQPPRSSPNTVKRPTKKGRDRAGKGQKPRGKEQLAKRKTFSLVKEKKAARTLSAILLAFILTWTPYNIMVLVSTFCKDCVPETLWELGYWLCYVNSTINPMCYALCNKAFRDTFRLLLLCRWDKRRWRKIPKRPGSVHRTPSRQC
The test can be described thus: Phospho-ERK1/2 assay, muscarinic M1. The settings on record: for EC50: CHO cells expressing human M1, phospho-ERK1/2 Alphascreen, read-out: pEC50 M1 (converted); for Emax: CHO, read-out: % Emax cf. ACh (M1). Here is the method: as §1, §2

Test [4] has as its target T4, human muscarinic M2 receptor (Homo sapiens, UniProt P08172).
T4 sequence (P08172 1-466): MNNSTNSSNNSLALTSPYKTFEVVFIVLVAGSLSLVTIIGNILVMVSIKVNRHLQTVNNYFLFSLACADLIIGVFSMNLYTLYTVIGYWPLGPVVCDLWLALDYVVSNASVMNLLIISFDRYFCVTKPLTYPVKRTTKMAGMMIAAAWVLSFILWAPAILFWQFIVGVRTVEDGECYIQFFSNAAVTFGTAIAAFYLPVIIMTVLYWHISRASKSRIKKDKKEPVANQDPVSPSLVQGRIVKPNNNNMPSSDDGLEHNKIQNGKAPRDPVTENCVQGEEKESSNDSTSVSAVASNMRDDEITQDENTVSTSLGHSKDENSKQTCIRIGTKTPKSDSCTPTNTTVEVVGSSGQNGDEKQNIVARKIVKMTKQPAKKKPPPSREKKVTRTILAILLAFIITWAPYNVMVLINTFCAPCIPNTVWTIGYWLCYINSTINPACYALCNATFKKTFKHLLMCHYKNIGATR
The test can be described thus: Phospho-ERK1/2 assay, muscarinic M2. The settings on record: for EC50: CHO cells expressing human M2, phospho-ERK1/2 Alphascreen, read-out: pEC50 M2 (converted); for Emax: CHO, read-out: % Emax cf. ACh (M2). Here is the method:
as §1, §2

T1 sequence (P20309 whole entry): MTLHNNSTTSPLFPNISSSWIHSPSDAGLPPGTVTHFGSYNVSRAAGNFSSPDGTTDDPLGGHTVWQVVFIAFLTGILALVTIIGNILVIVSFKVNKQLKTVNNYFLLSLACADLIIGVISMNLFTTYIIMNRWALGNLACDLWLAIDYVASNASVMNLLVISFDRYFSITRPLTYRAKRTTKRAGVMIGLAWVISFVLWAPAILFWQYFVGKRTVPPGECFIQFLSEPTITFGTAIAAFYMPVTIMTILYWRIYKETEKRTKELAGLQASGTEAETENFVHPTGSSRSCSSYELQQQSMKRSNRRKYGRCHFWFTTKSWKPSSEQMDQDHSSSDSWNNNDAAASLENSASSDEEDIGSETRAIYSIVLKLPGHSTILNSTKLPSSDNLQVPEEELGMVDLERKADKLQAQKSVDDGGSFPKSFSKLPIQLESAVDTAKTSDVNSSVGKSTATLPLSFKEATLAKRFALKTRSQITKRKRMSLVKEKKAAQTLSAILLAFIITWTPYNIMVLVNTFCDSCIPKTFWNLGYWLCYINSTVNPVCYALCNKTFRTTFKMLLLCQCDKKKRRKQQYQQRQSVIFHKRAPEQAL

A word on the Emax: it is the maximal effect, on the per cent scale that the assay sets. On to `CCOC(=O)N1CCCC(N2CCC(F)(C(=O)NC(C)(C)C(C)C)CC2)CC1` (stereo not drawn) [Example 44, ethyl 4-(4-fluoro-4-((2,3-dimethylbutan-2-yl)carbamoyl)piperidin-1-yl)azepane-1-carboxylate], for which the EC50 in test [1] (CHO cells expressing human M3) was more than 20000 nM; in test [2] (CHO cells expressing human M4), 417 nM; in test [3] it was 31.6 nM; in test [4] it was more than 20000 nM. The Emax in test [1] was found to be 5%; in test [2], 113%; in test [3] it was 104%; in test [4], 19%.

As to `CCOC(=O)N1CCCC(N2CCC(F)(C(=O)NCC3CC3)CC2)CC1` (stereo not drawn) [Example 52, ethyl 4-(4-fluoro-4-((cyclopropylmethyl)carbamoyl)piperidin-1-yl)azepane-1-carboxylate], the EC50 in test [1] (CHO cells expressing human M3) is more than 20000 nM; in test [2] (CHO cells expressing human M4) it was 501 nM; in test [3], 229 nM; in test [4], more than 20000 nM. Besides, the maximal effect (Emax) in test [1] was determined as 5%; in test [2] it was 84%; in test [3], 95%; in test [4], 9%.

As to `CCOC(=O)N1CCCC(N2CCC(C(=O)NC3(CC)CCC3)CC2)CC1` (stereo not drawn) [Example 74], the EC50 was more than 20000 nM in test [1] (CHO cells expressing human M3), 282 nM in test [2] (CHO cells expressing human M4), 52.5 nM in test [3] and more than 20000 nM in test [4]. In addition, the Emax in test [1] came out at 4%; in test [2], 97%; in test [3] it was 132%; in test [4], 19%.

With `CCOC(=O)N1CCCC(N2CCC(F)(C(=O)NCC3CCCC3)CC2)CC1` (stereo not drawn) [Example 53, ethyl 4-(4-fluoro-4-((cyclopentylmethyl)carbamoyl)piperidin-1-yl)azepane-1-carboxylate], the EC50 in test [1] (CHO cells expressing human M3) is more than 20000 nM; in test [2] (CHO cells expressing human M4), 977 nM; in test [3], 97.7 nM; in test [4], more than 20000 nM. Also, the Emax in test [1] was determined as 17%; in test [2] it was 90%; in test [3], 122%; in test [4], 9%.

As for `CCOC(=O)N1CCC[C@@H](N2CCC(C(=O)NCC(C)C)CC2)CC1` [Example 64], the EC50 is more than 20000 nM in test [1] (CHO cells expressing human M3), 3240 nM in test [2] (CHO cells expressing human M4), 107 nM in test [3] and more than 20000 nM in test [4]. The maximum response (Emax) in test [1] came to 9%; in test [2], 81%; in test [3] it was 104%; in test [4], 5%.

Consider `CCOC(=O)N1CCC[C@H](N2CCC(C(=O)NC(C)(C)C)CC2)CC1` [Example 67, ethyl (4S)-4-[4-(tert-butylcarbamoyl)piperidin-1-yl]azepane-1-carboxylate], for which the EC50 in test [1] (CHO cells expressing human M3) is more than 20000 nM; in test [2] (CHO cells expressing human M4) it was 501 nM; in test [3], 126 nM; in test [4], more than 20000 nM. Further, the Emax was found to be 4% in test [1], 104% in test [2], 114% in test [3] and 48% in test [4].

Turning to `CCOC(=O)N1CCCC(N2CCC(C(=O)NC3(C(F)(F)F)CCC3)CC2)CC1` (stereo not drawn) [Example 70], the EC50 in test [1] (CHO cells expressing human M3) is more than 20000 nM; in test [2] (CHO cells expressing human M4), 794 nM; in test [3], 269 nM; in test [4], more than 20000 nM. In addition, the maximal effect (Emax) was 3% in test [1], 55% in test [2], 107% in test [3] and 5% in test [4].

For `CCOC(=O)N1CCCC(N2CCC(F)(C(=O)NCC(C)(C)C)CC2)CC1` (stereo not drawn) [Example 46, ethyl 4-(4-fluoro-4-((2,2-dimethylpropyl)carbamoyl)pipendin-1-yl)azepane-1-carboxylate], the EC50 is more than 20000 nM in test [1] (CHO cells expressing human M3), 1070 nM in test [2] (CHO cells expressing human M4), 105 nM in test [3] and more than 20000 nM in test [4]. The maximal response (Emax) in test [1] is 1%; in test [2], 63%; in test [3], 90%; in test [4] it was 9%.

As for `CCOC(=O)N1CCCC(N2CCC(F)(C(=O)NC3(C)CCC3)CC2)CC1` (stereo not drawn) [Example 50, ethyl 4-(4-fluoro-4-((1-methylcyclobutyl)carbamoyl)piperidin-1-yl)azepane-1-carboxylate], the EC50 in test [1] (CHO cells expressing human M3) was more than 20000 nM; in test [2] (CHO cells expressing human M4), 603 nM; in test [3] it was 19.5 nM; in test [4], more than 20000 nM. For the same molecule, the Emax in test [1] was 2%; in test [2] it was 90%; in test [3], 102%; in test [4], 17%.

As for `CCOC(=O)N1CCCC(N2CCC(F)(C(=O)NC3CCCC3)CC2)CC1` (stereo not drawn) [Example 51, ethyl 4-(4-fluoro-4-((cyclopentyl)carbamoyl)piperidin-1-yl)azepane-1-carboxylate], the EC50 was more than 20000 nM in test [1] (CHO cells expressing human M3), 708 nM in test [2] (CHO cells expressing human M4), 51.3 nM in test [3] and more than 20000 nM in test [4]. Besides, the Emax in test [1] was 6%; in test [2], 93%; in test [3] it was 107%; in test [4] it was 12%.

Take `CCOC(=O)N1CCCC(N2CCC(C)(C(=O)NC3(C)CCC3)CC2)CC1` (stereo not drawn) [Example 78, ethyl 4-{4-methyl-4-[(1-methylcyclobutyl)carbamoyl]piperidin-1-yl}azepane-1-carboxylate]: the EC50 in test [1] (CHO cells expressing human M3) is more than 20000 nM; in test [2] (CHO cells expressing human M4) it was 417 nM; in test [3] it was 42.7 nM; in test [4], more than 20000 nM. The Emax in test [1] worked out at 0%; in test [2], 51%; in test [3], 115%; in test [4], 5%.

For `CCOC(=O)N1CCCC(N2CCC(C(=O)NCC(C)(C)C)CC2)CC1` (stereo not drawn) [Example 9, ethyl 4-(4-((2,2-dimethylpropyl)carbamoyl)piperidin-1-yl)azepane-1-carboxylate], the EC50 in test [1] (CHO cells expressing human M3) is 13200 nM; in test [2] (CHO cells expressing human M4), 794 nM; in test [3], 117 nM; in test [4], more than 20000 nM. The Emax in test [1] is 23%; in test [2], 41%; in test [3], 125%; in test [4] it was 6%.

With `CCOC(=O)N1CCC[C@@H](N2CCC(C(=O)NC(C)(C)C)CC2)CC1` [Example 68, ethyl (4R)-4-[4-(tert-butylcarbamoyl)piperidin-1-yl]azepane-1-carboxylate], the figures for the EC50 in test [2] (CHO cells expressing human M4) and in test [3] were 3720 nM and 813 nM, respectively. The Emax in test [2] amounted to 64%; in test [3], 94%.

Take `CC(=O)OCC[N+](C)(C)C` [ACh]: the “% Emax cf. ACh (M3)” value in test [1] (CHO cells expressing human M3, Emax relative to ACh) is reported as “(112) %”. Also, in test [2] (CHO cells expressing human M4, Emax relative to ACh), the “% Emax cf. ACh (M4)” value is given as “(110) %”.
